# Data published in PMC314469, “Protein Interaction Networks by Proteome Peptide Scanning” (PLoS Biology, 2004).
# System: Myo5 SH3 domain
# Assay: SPOT analysis of cellulose-bound peptides (WISE), Myo5 SH3 domain (Dataset S4)
# Format: binding, Saccharomyces cerevisiae
# Conditions: for The normalized value in BLU units: Myo5 SH3 domain
# [1] = SPOT analysis of membrane-synthesized peptides probed with Myo5 SH3 domain, normalized value
# [2] = SPOT analysis of cellulose-bound 14-mer yeast proteome peptides, normalized value, mean where the peptide was synthesized more than once
# [3] = SPOT analysis of cellulose-bound peptides probed with Myo5 SH3 domain, normalized value
# [4] = SPOT analysis of membrane-bound peptides, normalized value (see methods)
sequence,measurement,setting,value
FEYSKYRPLTPSSE,"The normalized value in BLU units (SPOT analysis, Myo5 SH3)",[1],143.0 BLU
FFFFHLSPSIPFWF,The normalized value in BLU units,[2],6490.2 BLU
FFNRYPNPYSPHVL,"The normalized value in BLU units (SPOT analysis, Myo5 SH3)",[3],136.7 BLU
FFPIMSLPVTPVKS,"The normalized value in BLU units (SPOT analysis, Myo5 SH3)",[3],122.3 BLU
FFQLMQSPSLPLLM,The normalized value in BLU units,[2],829.6 BLU
FFTIWFIPLVPVFW,"The normalized value in BLU units (SPOT analysis, Myo5 SH3)",[3],396.7 BLU
FFYRRDIPDVPITT,The normalized value in BLU units,[2],138.0 BLU
FGSNKNNPVPPELT,"The normalized value in BLU units (SPOT analysis, Myo5 SH3)",[1],171.5 BLU
FGTAKILPEEPSNT,"The normalized value in BLU units (SPOT analysis, Myo5 SH3)",[1],153.4 BLU
FHDPKFIPNKPYRQ,The normalized value in BLU units,[2],299.7 BLU
FHPEKLTPYTPMTG,"The normalized value in BLU units (SPOT analysis, Myo5 SH3)",[1],96.5 BLU
FIKNKAKPLIPIEL,The normalized value in BLU units,[4],656.3 BLU
FKVYRWNPDEPSAK,"The normalized value in BLU units (SPOT analysis, Myo5 SH3)",[1],99.0 BLU
FLALFSDPARPFLT,"The normalized value in BLU units (SPOT analysis, Myo5 SH3)",[3],451.5 BLU
FLHSKKIPEVPQTD,The normalized value in BLU units,[4],287.9 BLU
FLLKKMFPAPPLPT,"The normalized value in BLU units (SPOT analysis, Myo5 SH3)",[1],23725.0 BLU
FLPVFNLPSNPALF,"The normalized value in BLU units (SPOT analysis, Myo5 SH3)",[3],154.3 BLU
FLQDRVIPIFPHYP,"The normalized value in BLU units (SPOT analysis, Myo5 SH3)",[1],260.9 BLU
FLRTMAQPTDPKDQ,The normalized value in BLU units,[2],256.6 BLU
FLSRYPVPDLPIYL,The normalized value in BLU units,[2],1340.1 BLU
FLSYMSEPKYPSNE,The normalized value in BLU units,[2],141.6 BLU
FLTVYILPKNPFRV,The normalized value in BLU units,[2],1470.4 BLU
FLYPYDDPNAPIDE,"The normalized value in BLU units (SPOT analysis, Myo5 SH3)",[3],55.4 BLU
FNGDRLVPTLPTVS,The normalized value in BLU units,[4],160.6 BLU
FPFYLSFPFCPSFP,"The normalized value in BLU units (SPOT analysis, Myo5 SH3)",[3],759.9 BLU
FPKKMGPPQWPFST,The normalized value in BLU units,[2],279.0 BLU
FQDYRCSPWCPSRS,"The normalized value in BLU units (SPOT analysis, Myo5 SH3)",[1],263.5 BLU
FQPQRTAPKPPISA,"The normalized value in BLU units (SPOT analysis, Myo5 SH3)",[1],88304.9 BLU
FQYTKGRPLAPKGA,The normalized value in BLU units,[4],235.2 BLU
FRPHRLAPSAPATK,The normalized value in BLU units,[4],1405.4 BLU
FSKKKEAPEDPKNL,"The normalized value in BLU units (SPOT analysis, Myo5 SH3)",[1],148.1 BLU
FSTKKSKPIRPFVF,"The normalized value in BLU units (SPOT analysis, Myo5 SH3)",[1],378.5 BLU
FVFFKSLPDLPKPQ,"The normalized value in BLU units (SPOT analysis, Myo5 SH3)",[1],859.9 BLU
FVSPRRAPKPPSYP,The normalized value in BLU units,[4],1581.6 BLU
FWKIHLSPPLPSFK,"The normalized value in BLU units (SPOT analysis, Myo5 SH3)",[3],965.5 BLU
FYDFRSLPKVPTTQ,The normalized value in BLU units,[4],336.7 BLU
FYKEKAKPLEPILD,The normalized value in BLU units,[4],87.7 BLU
GAGGLGCPALPYLA,"The normalized value in BLU units (SPOT analysis, Myo5 SH3)",[3],110.6 BLU
GAPPLPVPNGPAVG,"The normalized value in BLU units (SPOT analysis, Myo5 SH3)",[3],222.0 BLU
GARFLPAPHRPEKY,The normalized value in BLU units,[2],152.9 BLU
GDEERFLPNRPHYE,"The normalized value in BLU units (SPOT analysis, Myo5 SH3)",[1],125.8 BLU
GDHPKGPPPPPPPD,"The normalized value in BLU units (SPOT analysis, Myo5 SH3)",[1],40130.9 BLU
GDHPKGPPPPPPPP,"The normalized value in BLU units (SPOT analysis, Myo5 SH3)",[1],20184.2 BLU
GEFFHCSPNIPHYA,The normalized value in BLU units,[2],271.2 BLU
GEIMFPAPPLPIAN,"The normalized value in BLU units (SPOT analysis, Myo5 SH3)",[3],2774.8 BLU
GEMVKLTPKNPFYK,"The normalized value in BLU units (SPOT analysis, Myo5 SH3)",[1],408.3 BLU
GENIKITPQKPFWF,The normalized value in BLU units,[4],115.0 BLU
GESHYKPPSTPKIN,"The normalized value in BLU units (SPOT analysis, Myo5 SH3)",[3],721.8 BLU
GETQWRIPYLPLDP,"The normalized value in BLU units (SPOT analysis, Myo5 SH3)",[3],106.2 BLU
GETRWRIPYLPLDP,"The normalized value in BLU units (SPOT analysis, Myo5 SH3)",[3],118.4 BLU
GEYDLIMPIYPYRL,The normalized value in BLU units,[2],242.0 BLU
GFDGYMQPIIPGKT,"The normalized value in BLU units (SPOT analysis, Myo5 SH3)",[3],158.4 BLU
GFLSKKVPNTPVVV,The normalized value in BLU units,[4],71.3 BLU
GFQDRSLPHFPKNS,The normalized value in BLU units,[4],178.5 BLU
GFVFFIAPHLPVDL,The normalized value in BLU units,[2],507.5 BLU
GHKKKNLPKFPKNK,"The normalized value in BLU units (SPOT analysis, Myo5 SH3)",[1],789.2 BLU
GIKVKRIPYSPKSI,The normalized value in BLU units,[4],390.6 BLU
GIMIKAKPSSPYTY,"The normalized value in BLU units (SPOT analysis, Myo5 SH3)",[1],235.9 BLU
GKDHRLAPNGPGMH,"The normalized value in BLU units (SPOT analysis, Myo5 SH3)",[1],217.5 BLU
GKMVKWGPLRPFLS,"The normalized value in BLU units (SPOT analysis, Myo5 SH3)",[1],644.7 BLU
GLDALNIPHKPKQL,"The normalized value in BLU units (SPOT analysis, Myo5 SH3)",[3],167.1 BLU
GLDLKWEPSTPQRK,The normalized value in BLU units,[4],164.4 BLU
GLHDYTSPASPKQT,"The normalized value in BLU units (SPOT analysis, Myo5 SH3)",[3],129.7 BLU
GLIAHQGPQFPVMG,The normalized value in BLU units,[2],238.5 BLU
GLIGMNDPPRPNVK,The normalized value in BLU units,[2],115.5 BLU
GLLLLFVPDSPYDP,The normalized value in BLU units,[2],21.6 BLU
GLLTYKGPKVPYQK,"The normalized value in BLU units (SPOT analysis, Myo5 SH3)",[3],150.1 BLU
GLMSKLGPNLPASI,"The normalized value in BLU units (SPOT analysis, Myo5 SH3)",[1],287.3 BLU
GLNLKWEPSTPQRN,The normalized value in BLU units,[4],104.8 BLU
GLRELFLPGMPGLM,The normalized value in BLU units,[2],159.7 BLU
GLRWYRSPIYPYLY,"The normalized value in BLU units (SPOT analysis, Myo5 SH3)",[3],468.1 BLU
GLVLRSTPVIPDMK,The normalized value in BLU units,[2],209.2 BLU
